Results reported in PubChem BioAssay AID248 (DTP/NCI, 2004).
Several values for one entry are separate records, joined by “and”; a condition that tells them apart may be missing. Identical values can stand only once. Inconclusive results and toxic doses are left out. Rule as the data show it: active = T/C of 150% or more; inactive = T/C below 125%. Square brackets hold non-standard residues; d marks the D form. Peptide text beside a SMILES is read from it. * marks the point of attachment. ξ: configuration not given here. ξV = CC(C)C(N)C(=O)O; ClAc = O=C(CCl)*

Test system: L1210 leukemia ip in BDF1 mice, survival T/C
Assay: NCI In Vivo Anticancer Drug Screen. Data for tumor model L1210 Leukemia (intraperitoneal) in B6D2F1 (BDF1) mice
Details: endpoint: mean survival time, higher = longer survival
Procedure, shortened: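 Survival endpoint. Drug-treated group vs vehicle group, expressed as T divided by C. Tumor passaged by transplantation.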

[1] = dose: 100.0 mg/kg/injection, schedule: Q01DX009 (ip), vehicle: Klucel (hydroxypropylcellulose) (HPC)
[2] = dose: 200.0 mg/kg/injection, schedule: Q01DX009 (ip), vehicle: Klucel (hydroxypropylcellulose) (HPC)
[3] = dose: 100.0 mg/kg/injection, schedule: Q04DX003 (ip), vehicle: saline with Tween-80
[4] = dose: 200.0 mg/kg/injection, schedule: Q04DX003 (ip), vehicle: saline with Tween-80
[5] = dose: 100.0 mg/kg/injection, schedule: Q01DX001 (ip), vehicle: carboxymethylcellulose (CMC)
[6] = dose: 200.0 mg/kg/injection, schedule: Q01DX001 (ip), vehicle: carboxymethylcellulose (CMC)
[7] = dose: 400.0 mg/kg/injection, schedule: Q01DX001 (ip), vehicle: carboxymethylcellulose (CMC)
[8] = dose: 100.0 mg/kg/injection, schedule: Q04DX002 (ip), vehicle: Klucel (hydroxypropylcellulose) (HPC)
[9] = dose: 200.0 mg/kg/injection, schedule: Q04DX002 (ip), vehicle: Klucel (hydroxypropylcellulose) (HPC)
[10] = dose: 400.0 mg/kg/injection, schedule: Q04DX002 (ip), vehicle: Klucel (hydroxypropylcellulose) (HPC)
[11] = dose: 100.0 mg/kg/injection, schedule: Q01DX009 (ip), vehicle: saline with Tween-80
[12] = dose: 200.0 mg/kg/injection, schedule: Q01DX009 (ip), vehicle: saline with Tween-80
[13] = dose: 400.0 mg/kg/injection, schedule: Q04DX003 (ip), vehicle: saline with Tween-80
[14] = dose: 400.0 mg/kg/injection, schedule: Q01DX009 (ip), vehicle: Klucel (hydroxypropylcellulose) (HPC)
[15] = dose: 75.0 mg/kg/injection, schedule: Q01DX001 (ip), vehicle: saline

Measured: T/C

COc1cccc2c1C(=O)c1c(O)c3c(c(O)c1C2=O)CC(O)(C(C)=O)CC3OC1CC(NC(=S)Nc2ccccc2)C(O)C(C)O1 (stereo unspecified)
inactive: dose: 2.0 mg/kg/injection, schedule: Q04DX003 (ip), vehicle: water 105 % of control | dose: 3.12 mg/kg/injection, schedule: Q01DX009 (ip), vehicle: saline with Tween-80 117 % of control | dose: 4.0 mg/kg/injection, schedule: Q04DX003 (ip), vehicle: water 111 % of control | dose: 6.25 mg/kg/injection, schedule: Q01DX009 (ip), vehicle: saline with Tween-80 122 % of control | dose: 8.0 mg/kg/injection, schedule: Q04DX003 (ip), vehicle: water 106 % of control | dose: 12.5 mg/kg/injection, schedule: Q01DX009 (ip), vehicle: saline with Tween-80 123 % of control | dose: 16.0 mg/kg/injection, schedule: Q04DX003 (ip), vehicle: water 120 % of control and 123 % of control | dose: 32.0 mg/kg/injection, schedule: Q04DX003 (ip), vehicle: water 123 % of control | dose: 64.0 mg/kg/injection, schedule: Q04DX003 (ip), vehicle: water 118 % of control | dose: 125.0 micrograms/kg/injection, schedule: Q04DX003 (ip), vehicle: water 98 % of control | dose: 250.0 micrograms/kg/injection, schedule: Q04DX003 (ip), vehicle: water 103 % of control | dose: 500.0 micrograms/kg/injection, schedule: Q04DX003 (ip), vehicle: water 107 % of control | dose: 1000.0 micrograms/kg/injection, schedule: Q04DX003 (ip), vehicle: water 102 % of control | dose: 2000.0 micrograms/kg/injection, schedule: Q04DX003 (ip), vehicle: water 104 % of control

O=[N+]([O-])C12CC3CC(CC(C3)C1)C2
inactive: dose: 100.0 mg/kg/injection, schedule: Q01DX001 (sc), vehicle: olive oil, sesame oil, peanut oil 114 % of control | dose: 200.0 mg/kg/injection, schedule: Q01DX001 (sc), vehicle: olive oil, sesame oil, peanut oil 108 % of control | dose: 400.0 mg/kg/injection, schedule: Q01DX001 (sc), vehicle: olive oil, sesame oil, peanut oil 93 % of control

Cc1ccc(-c2nc3ccccc3c(=O)o2)cc1
inactive: dose: 50.0 mg/kg/injection, schedule: Q01DX009 (ip), vehicle: gum acacia 93 % of control and 100 % of control | dose: 100.0 mg/kg/injection, schedule: Q01DX009 (ip), vehicle: gum acacia 93 % of control and 100 % of control | dose: 100.0 mg/kg/injection, schedule: Q04DX003 (ip), vehicle: gum acacia 106 % of control | dose: 200.0 mg/kg/injection, schedule: Q04DX003 (ip), vehicle: gum acacia 88 % of control

CCCCCCCCCC(=O)N/N=C/c1ccncc1
inactive: [1] 89 % of control | [2] 103 % of control

CC1(C)CCCC2(C)C3=C(CC4(C(C)(C)O)OC4C3=O)C(=O)CC12 (stereo unspecified)
inactive: dose: 100.0 mg/kg/injection, schedule: Q01DX001 (ip), vehicle: saline 102 % of control | dose: 200.0 mg/kg/injection, schedule: Q01DX001 (ip), vehicle: saline 105 % of control | dose: 400.0 mg/kg/injection, schedule: Q01DX001 (ip), vehicle: saline 109 % of control

O=C(O)c1c(Cl)c(Cl)c(Cl)c(Cl)c1C(=O)O.O=C(O)c1c(Cl)c(Cl)c(Cl)c(Cl)c1C(=O)O.[Pt]
inactive: dose: 100.0 mg/kg/injection, schedule: Q04DX003 (ip), vehicle: saline sonified 105 % of control

CC(C)C(NC(=O)CNC(=O)CCl)C(=O)O (stereo unspecified) (ClAc-Gly-[ξV]-OH)
inactive: [3] 101 % of control | [4] 101 % of control

N#Cc1ccccc1CCl
inactive: dose: 50.0 mg/kg/injection, schedule: Q01DX001 (ip), vehicle: carboxymethylcellulose (CMC) 103 % of control | [5] 97 % of control | [6] 103 % of control | [7] 107 % of control

O=C(COc1ccc(F)cc1Cl)OCCOCCO
inactive: [8] 106 % of control | [9] 95 % of control | [10] 106 % of control

CCNC(C)(C)C(O)c1ccc(Cl)s1 (stereo unspecified)
inactive: [11] 98 % of control | [3] 100 % of control | [12] 98 % of control | [4] 102 % of control | [13] 103 % of control

O=C1c2ccccc2C(=O)N1c1ccccc1O
inactive: [8] 98 % of control | [9] 102 % of control | [10] 106 % of control

CC1CCC(C)(C)C1=O (stereo unspecified)
inactive: dose: 100.0 mg/kg/injection, schedule: Q01DX009 (ip), vehicle: saline 106 % of control | dose: 200.0 mg/kg/injection, schedule: Q01DX009 (ip), vehicle: saline 96 % of control | dose: 400.0 mg/kg/injection, schedule: Q01DX009 (ip), vehicle: saline 98 % of control

CC(=NC(CC(C)C)C(=O)O)NC(CC(C)C)C(=O)O (stereo unspecified)
inactive: [1] 101 % of control | [2] 110 % of control | [14] 103 % of control

Cn1c(=O)[nH]c(=O)c2[nH]c(CO)nc21
inactive: [5] 100 % of control | [6] 102 % of control

Oc1cccc(/C=N/NC(=S)Nc2ccccc2)c1
inactive: [1] 104 % of control | [2] 96 % of control | [14] 93 % of control

CCOC(=O)Nc1cc(NC(C)CCCN(CC)CC)nc2nc(-c3ccc(Cl)cc3)cnc12 (stereo unspecified)
inactive: dose: 9.5 mg/kg/injection, schedule: Q01DX001 (ip), vehicle: saline 100 % of control | dose: 19.0 mg/kg/injection, schedule: Q01DX001 (ip), vehicle: saline 102 % of control | dose: 38.0 mg/kg/injection, schedule: Q01DX001 (ip), vehicle: saline 89 % of control | [15] 100 % of control

O=S1CCCO1 (stereo unspecified)
inactive: dose: 4.7 mg/kg/injection, schedule: Q01DX009 (ip), vehicle: saline 100 % of control | dose: 9.4 mg/kg/injection, schedule: Q01DX009 (ip), vehicle: saline 96 % of control | dose: 18.8 mg/kg/injection, schedule: Q01DX009 (ip), vehicle: saline 93 % of control | [15] 98 % of control

CCOC(=O)CNc1ccc(C)c(F)c1
inactive: dose: 25.0 mg/kg/injection, schedule: Q04DX002 (ip), vehicle: Klucel (hydroxypropylcellulose) (HPC) 98 % of control | dose: 50.0 mg/kg/injection, schedule: Q04DX002 (ip), vehicle: Klucel (hydroxypropylcellulose) (HPC) 98 % of control | [8] 97 % of control and 109 % of control

Nc1ncnc(N)c1NC(=O)c1ccc(OCCc2ccccc2)c(Cl)c1
inactive: dose: 100.0 mg/kg/injection, schedule: Q01DX001 (ip), vehicle: saline with Tween-80 106 % of control | dose: 200.0 mg/kg/injection, schedule: Q01DX001 (ip), vehicle: saline with Tween-80 96 % of control | dose: 400.0 mg/kg/injection, schedule: Q01DX001 (ip), vehicle: saline with Tween-80 102 % of control

CC(=O)c1ccc(OC(=O)Oc2ccc(C(C)=O)cc2)cc1
inactive: [5] 93 % of control | [6] 101 % of control | [7] 93 % of control

O=C(N/N=C/c1ccc2c(c1)OCO2)c1ccco1
inactive: dose: 100.0 mg/kg/injection, schedule: Q01DX001 (ip), vehicle: other 96 % of control | dose: 200.0 mg/kg/injection, schedule: Q01DX001 (ip), vehicle: other 93 % of control | dose: 400.0 mg/kg/injection, schedule: Q01DX001 (ip), vehicle: other 98 % of control

O=C(Cn1ccc(O)cc1=O)c1ccc(Cl)s1
inactive: [11] 111 % of control | [3] 98 % of control | [12] 90 % of control | [4] 93 % of control | dose: 400.0 mg/kg/injection, schedule: Q01DX009 (ip), vehicle: saline with Tween-80 91 % of control | [13] 98 % of control
